Source: patent US7642255B2, “Compounds and compositions as protein kinase inhibitors” (IRM LLC, priority 2004, dated 2010)

Key:
Type in all cases: cell-based
wild type Bcr-abl = target: T1, wild type Bcr-abl (Homo sapiens, UniProt P00519); assay: Antiproliferative effect on Ba/F3 cells expressing wild type BCR-Abl
T1 construct: BCR (N-terminal fusion partner); expressed in transfected cells; host or cells: Ba/F3 cells; the other entry of the earlier key: BCR (P11274, Breakpoint cluster region protein)
Procedure: (§1) 32D-p210 cells are plated into 96 well TC plates at a density of 15,000 cells per well. 50 μL of two fold serial dilutions of the test compound (Cmax is 40 μM) are added to each well (STI571 is included as a positive control). After incubating the cells for 48 hours at 37° C., 5% CO2, 15 μL of MTT (Promega) is added to each well and the cells are incubated for an additional 5 hours. The optical density at 570 nm is quantified spectrophotometrically and IC50 values, the concentration of compound required for 50% inhibition, determined from a dose response curve.
(§2) Compounds of the invention are tested for their antiproliferative effect on Ba/F3 cells expressing either wild type or the mutant forms of BCR-Abl (G250E, E255V, T3151, F317L, M351T) that confers resistance or diminished sensitivity to STI571. The antiproliferative effect of these compounds on the mutant-BCR-Abl expressing cells and on the non transformed cells were tested at 10, 3.3, 1.1 and 0.37 μM as described above (in media lacking IL3). The IC50 values of the compounds lacking toxicity on the untransformed cells were determined from the dose response curves obtained as describe above.

G250E Bcr-abl = target: T2, G250E Bcr-abl (Homo sapiens, UniProt P00519, G250E); assay: Antiproliferative effect on Ba/F3 cells expressing mutant BCR-Abl G250E
T2 construct: BCR (N-terminal fusion partner); expressed in transfected cells; host or cells: Ba/F3 cells; the other entry of the earlier key: BCR (P11274, Breakpoint cluster region protein)
Procedure: as §1, §2

E255V Bcr-abl = target: T3, E255V Bcr-abl (Homo sapiens, UniProt P00519, E255V); assay: Antiproliferative effect on Ba/F3 cells expressing mutant BCR-Abl E255V
T3 construct: BCR (N-terminal fusion partner); expressed in transfected cells; host or cells: Ba/F3 cells; the other entry of the earlier key: BCR (P11274, Breakpoint cluster region protein)
Procedure: as §1, §2

T3151 Bcr-abl = target: T4, T3151 Bcr-abl (Homo sapiens, UniProt P00519, T315I); assay: Antiproliferative effect on Ba/F3 cells expressing mutant BCR-Abl T3151
T4 construct: BCR (N-terminal fusion partner); expressed in transfected cells; host or cells: Ba/F3 cells
Procedure: as §1, §2

F317L Bcr-abl = target: T5, F317L Bcr-abl (Homo sapiens, UniProt P00519, F317L); assay: Antiproliferative effect on Ba/F3 cells expressing mutant BCR-Abl F317L
T5 construct: BCR (N-terminal fusion partner); expressed in transfected cells; host or cells: Ba/F3 cells; the other entry of the earlier key: BCR (P11274, Breakpoint cluster region protein)
Procedure: as §1, §2

M351T Bcr-abl = target: T6, M351T Bcr-abl (Homo sapiens, UniProt P00519, M351T); assay: Antiproliferative effect on Ba/F3 cells expressing mutant BCR-Abl M351T
T6 construct: BCR (N-terminal fusion partner); expressed in transfected cells; host or cells: Ba/F3 cells; the other entry of the earlier key: BCR (P11274, Breakpoint cluster region protein)
Procedure: as §1, §2

IC50 (wild type Bcr-abl): 5 nM
IC50 (G250E Bcr-abl): 2 nM
IC50 (E255V Bcr-abl): 5 nM
IC50 (T3151 Bcr-abl): 3 nM
IC50 (F317L Bcr-abl): 5 nM
IC50 (M351T Bcr-abl): 5 nM
Structure (SMILES): Cc1ccc(NC(=O)c2cccc(C(F)(F)F)c2)cc1N1Cc2cnc(Nc3cccc(N)c3)nc2N(C)C1=O [Example 2, N-{3-[7-(3-Amino-phenylamino)-1-methyl-2-oxo-1,4-dihydro-2H-pyrimido[4,5-d]pyrimidin-3-yl]-4-methyl-phenyl}-3-trifluoromethyl-benzamide]
